From US20140323500A1, “NADPH OXIDASE 4 INHIBITORS AND USE THEREOF” (GENKYOTEX SA, priority 2011, published 2014)

How the values were obtained:
[1] = target: T1, human Nox2 (Homo sapiens, UniProt P04839); experiment: ROS production by membranes expressing human Nox2, cell-free Amplex Red assay; type: biochemical; conditions: cell-free membranes, Amplex Red; Cheng-Prusoff; average of at least three experiments in triplicate; read-out: Ki hNox2
T1 construct: host or cells: T-REx-CHO (hNOX2 T-REx-CHO), tetracycline-induced; membrane fraction
T1 sequence (P04839 2-570 limits assumed): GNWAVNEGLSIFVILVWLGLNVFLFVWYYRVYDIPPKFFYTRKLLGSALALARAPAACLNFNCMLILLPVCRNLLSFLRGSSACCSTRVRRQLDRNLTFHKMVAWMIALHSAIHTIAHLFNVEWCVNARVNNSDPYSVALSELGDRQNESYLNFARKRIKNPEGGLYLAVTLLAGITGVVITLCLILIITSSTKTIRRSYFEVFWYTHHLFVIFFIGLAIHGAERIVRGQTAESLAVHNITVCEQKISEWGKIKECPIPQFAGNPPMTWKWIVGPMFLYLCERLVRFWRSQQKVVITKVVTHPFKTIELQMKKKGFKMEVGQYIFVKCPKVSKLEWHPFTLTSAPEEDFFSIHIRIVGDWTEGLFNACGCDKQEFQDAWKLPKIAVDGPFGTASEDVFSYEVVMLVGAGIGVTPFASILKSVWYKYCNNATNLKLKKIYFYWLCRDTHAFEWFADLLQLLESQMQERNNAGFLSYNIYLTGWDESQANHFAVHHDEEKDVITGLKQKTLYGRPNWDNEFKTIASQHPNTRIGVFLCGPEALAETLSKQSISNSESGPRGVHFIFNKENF
T1 sequence (P13498 2-195 partner limits assumed): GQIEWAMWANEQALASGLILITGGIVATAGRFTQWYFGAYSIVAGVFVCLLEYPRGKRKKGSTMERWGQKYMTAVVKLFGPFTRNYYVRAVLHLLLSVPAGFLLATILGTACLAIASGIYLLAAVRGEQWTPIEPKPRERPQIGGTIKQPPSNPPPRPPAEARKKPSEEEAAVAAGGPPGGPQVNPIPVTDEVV
Excerpt: (§1) The Nox4 activity of Nox4 inhibitors according to the invention may be tested for their activity in the inhibition or reduction of formation of reactive oxygen species (ROS) from oxygen in cell free assays. In order to fully characterise Nox4 inhibitors, Nox subunit-specific cell-free, membrane-based systems have been developed and specific recombinant proteins have been added to membranes heterologously over-expressing their specific iso form. Nox enzymes produce superoxide (O2.−) as primary product, however due to the high instability and reactivity of this molecule which dismutates naturally into hydrogen peroxide (H2O2), therefore, read-out techniques involving probes that do measure H2O2 were used (e.g. using Amplex Red as a probe in order to facilitate consistent and accurate measurements). The activity of the compounds is tested in the following cell free assay using the techniques described here below:
Human Nox1 (NM_007052.4), human NOX2 (NM_000397), and human NOX5 (NM_0245052244) cDNAs were cloned into the pcDNA5/TO (Invitrogen). Human p22 (NM_000101.2) was cloned into pcDNA3.1/Zeo (+) (Invitrogen), and human NOXA1 (AY255769.1) and human NOXO1 (AB097667) were cloned into the bi-cistronic pVITRO1-neo-mcs plasmid (Invivogen).
Cells were transfected by using the FuGENE 6 method. Cells stably expressing functional human Nox1 (hNOX1 T-REx™-CHO) were obtained by co-transfecting T-REx™-CHO cells with human Nox1, human p22, human NOXA1 and human NOXO1. Cells stably expressing functional human Nox2 (hNOX2 T-REx™-CHO) were obtained by co-transfecting T-REx™-CHO cells with human nox2, human p22 and human cofactors. Cells stably expressing functional human Nox5 (hNOX5 T-REx™-CHO) were obtained by transfecting T-REx™-CHO cells with human Nox5. Co-transfected cells were selected with the appropriate antibiotics for 10 days. For the selection, hygromycin and G418 were used at 2 mg/ml and zeocin at 0.1 mg/ml. For the establishment of each stably transfected cell line, a pool of antibiotic-resistant cells was generated. Cells were cloned by limiting dilution. Several clones were established and investigated for ROS production upon tetracycline-induced hNox expression using a cellular AR assay. The expression of NOXes was done with tetracycline (1 μg/ml) during 24 h prior to the assay.
(§2) Human Nox1, Nox2, Nox4, and Nox5 expression were induced with Tetracycline (1 μg/ml) during 24 h prior to the membrane preparation Membranes from transfected cells overexpressing Nox1, Nox2, Nox4 or Nox5 were prepared as previously described in Palicz et al., 2001, J. Biol. Chem., 76, 3090-3097. After resuspension in sonication buffer (11% sucrose, 120 mM NaCl, 1 mM EGTA in PBS, pH 7.4 for Nox4- or NOX5-expressing cells) or in relax buffer (10 mM Pipes, 3 mM NaCl, 3.5 mM MgCl2, 0.1M KCl, pH 7.4), cells were broken by sonication and centrifuged (200 g, 10 min). The supernatant was layered onto a 17/40% (w/v) discontinuous sucrose gradient and centrifuged (150,000×g for 60 min). Membrane fractions were collected from the 17/40% interface and were stored at −80° C. Protein concentration was determined with the Bradford reagent.
(§3) Reactive Oxygen Species (ROS) production by membranes expressing either human Nox1, or human Nox2 or human Nox4 or human Nox5 or by xanthine/xanthine oxidase were measured using the Amplex Red (AR) method following a slightly modified version of the manufacturer's instruction manual (Invitrogen). Briefly, membranes or xanthine were incubated in PBS with Amplex Red, Horse Radish Peroxidase (HRP) and appropriated co-factors. ROS production was induced by addition of NADPH to NOX-expressing membrane or by addition of xanthine to xanthine oxidase. Non-specific signal was measured in the absence of membranes or in the absence of xanthine.
Antagonist activity of compounds was measured in the presence of increasing concentrations ranging from 1 nM to 100 μM. […]

[2] = target: T2, human Nox4 (Homo sapiens, UniProt Q9NPH5); experiment: ROS production by membranes expressing human Nox4, cell-free Amplex Red assay; type: biochemical; conditions: cell-free membranes, Amplex Red; Cheng-Prusoff; average of at least three experiments in triplicate; read-out: Ki hNox4
T2 construct: expressed in transfected cells; host or cells: T-REx-293 (hNOX4 T-REx-293), tetracycline-induced; membrane fraction
T2 sequence (Q9NPH5 1-578): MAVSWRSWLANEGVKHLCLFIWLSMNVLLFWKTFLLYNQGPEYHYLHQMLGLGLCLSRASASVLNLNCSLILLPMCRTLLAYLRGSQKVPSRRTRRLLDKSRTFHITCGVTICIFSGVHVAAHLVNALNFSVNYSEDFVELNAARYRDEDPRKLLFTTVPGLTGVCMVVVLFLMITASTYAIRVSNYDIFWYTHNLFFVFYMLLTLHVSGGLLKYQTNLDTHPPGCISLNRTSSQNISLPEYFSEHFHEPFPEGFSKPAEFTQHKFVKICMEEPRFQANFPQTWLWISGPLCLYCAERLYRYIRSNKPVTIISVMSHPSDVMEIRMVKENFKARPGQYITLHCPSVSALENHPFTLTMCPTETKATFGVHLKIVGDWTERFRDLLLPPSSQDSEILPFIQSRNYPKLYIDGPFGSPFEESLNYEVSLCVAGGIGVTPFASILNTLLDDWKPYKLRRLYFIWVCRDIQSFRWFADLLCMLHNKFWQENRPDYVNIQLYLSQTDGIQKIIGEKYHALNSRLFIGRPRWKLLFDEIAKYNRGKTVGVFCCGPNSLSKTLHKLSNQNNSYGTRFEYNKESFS
T2 sequence (P13498 2-195 partner limits assumed): T1 sequence (P13498 2-195 partner limits assumed)
Excerpt: as §1
Transfected T-REx™-CHO cells (R718-07) purchased from Invitrogen and T-REx™-293 cell line expressing hNOX4 (hNOX4 T-REx™-293) (Serrander et al., 2007, Biochem. J., 406, 105-114) were cultured in […]. Both media were supplemented with 10% FBS, 2 mM glutamine, penicillin (100 U/ml) and streptomycin (100 μg/ml). Selection pressure was maintained by continuous inclusion of blasticidin (5 μg/ml), and/or G418 (0.25 mg/ml), and/or Hygromycin (0.25 mg/ml) and/or zeocin (0.025 mg/ml).
as §2, §3
Antagonist activity of compounds was measured in the presence of increasing concentrations ranging from 1 nM to 100 μM. After an incubation of 20 min in a plate shaker and incubator (Titramax 1000, VWR) at 37° C. with weak agitation (300 rpm), ROS levels were measured for 10 min in a BMG Fluostar microplate reader with excitation and emission wavelengths of 544 nm and 590 nm respectively.
Data were analysed using Prism (GraphPad Software Inc., San Diego, Calif.). Ki values were calculated using the Cheng-Prusoff equation and represent the average of at least three individual experiments performed in triplicate (Table 1). Nox4 inhibition was compared to that measured for Simvastatin (Enzo Life Sciences, CAS Number 79902-63-9) using the method described in Example 1. Reactive Oxygen Species (ROS) production by membranes expressing human Nox4 was measured using the Amplex Red (AR).

Question: Which results are given for `COc1ccc(-c2c3c(=O)n(-c4ccccc4Cl)[nH]c3cc(=O)n2Cc2ccn(C)n2)c(F)c1` [(4), 2-(2-chlorophenyl)-4-(2-fluoro-4-methoxyphenyl)-5-[(1-methyl-1H-pyrazol-3-yl)methyl]-1H-pyrazolo[4,3-c]pyridine-3,6(2H,5H)-dione]?
Answer: Ki [1]: 813 nM; Ki [2]: 61 nM

Question: `COc1ccc(F)c(-c2c3c(=O)n(-c4ccccc4OC)[nH]c3cc(=O)n2Cc2cccnc2)c1` [(5), 4-(2-fluoro-5-methoxyphenyl)-2-(2-methoxyphenyl)-5-(pyridin-3-ylmethyl)-1H-pyrazolo[4,3-c]pyridine-3,6(2H,5H)-dione] was tested. Which Ki [1] did it give?
Answer: Its Ki is 730 nM.

Question: What about the Ki [2] of the same molecule?
Answer: Its Ki is 63 nM.

Question: For `COc1cc(Cn2c(C)c3c(=O)n(-c4ccccc4Cl)[nH]c3cc2=O)ccn1` [(6), 2-(2-chlorophenyl)-5-[(2-methoxypyridin-4-yl)methyl]-4-methyl-1H-pyrazolo[4,3-c]pyridine-3,6(2H,5H)-dione], which Ki [1] is on record?
Answer: The Ki was 715 nM.

Question: What about the Ki [2] of the same molecule?
Answer: The Ki was 69 nM.

Question: `COc1ccccc1-n1[nH]c2cc(=O)n(Cc3cccnc3)c(C)c2c1=O` [(7), 2-(2-methoxyphenyl)-4-methyl-5-(pyridin-3-ylmethyl)-1H-pyrazolo[4,3-c]pyridine-3,6(2H,5H)-dione] was tested. Which Ki [1] did it give?
Answer: The Ki was 1170 nM.

Question: What about the Ki [2] of the same molecule?
Answer: The Ki was 72 nM.

Question: With `COc1ccccc1-n1[nH]c2cc(=O)n(Cc3cccnc3)c(-c3ccc(Cl)cc3F)c2c1=O` [(8), 4-(4-chloro-2-fluorophenyl)-2-(2-methoxyphenyl)-5-(pyridin-3-ylmethyl)-1H-pyrazolo[4,3-c]pyridine-3,6(2H,5H)-dione] as the molecule, how does the Ki [1] read?
Answer: Its Ki is 750 nM.

Question: What about the Ki [2] of the same molecule?
Answer: Its Ki is 73 nM.

Question: With `O=c1c2c(-c3cc(Cl)ccc3F)n(Cc3cccnc3)c(=O)cc2[nH]n1-c1ccccc1Cl` [(9), 4-(5-chloro-2-fluorophenyl)-2-(2-chlorophenyl)-5-(pyridin-3-ylmethyl)-1H-pyrazolo[4,3-c]pyridine-3,6(2H,5H)-dione] as the molecule, how does the Ki [1] read?
Answer: The Ki was 650 nM.

Question: And the Ki [2]?
Answer: Its Ki is 74 nM.

Question: `COc1ccc(Cn2c(C)c3c(=O)n(-c4ccccc4Cl)[nH]c3cc2=O)cn1` [(10), 2-(2-chlorophenyl)-5-[(6-methoxypyridin-3-yl)methyl]-4-methyl-1H-pyrazolo[4,3-c]pyridine-3,6(2H,5H)-dione] was tested. Which Ki [1] did it give?
Answer: Its Ki is 700 nM.

Question: And the Ki [2]?
Answer: Its Ki is 74 nM.

Question: What does the source list for `O=c1c2c(-c3ccc(Cl)cc3F)n(Cc3cccnc3)c(=O)cc2[nH]n1-c1ccccc1Cl` [(11), 4-(4-chloro-2-fluorophenyl)-2-(2-chlorophenyl)-5-(pyridin-3-ylmethyl)-1H-pyrazolo[4,3-c]pyridine-3,6(2H,5H)-dione]?
Answer: Ki [1]: 563 nM; Ki [2]: 75 nM

Question: With `COc1ccc(F)c(-c2c3c(=O)n(-c4ccccc4OC)[nH]c3cc(=O)n2Cc2ccn(C)n2)c1` [(13), 4-(2-fluoro-5-methoxyphenyl)-2-(2-methoxyphenyl)-5-[(1-methyl-1H-pyrazol-3-yl)methyl]-1H-pyrazolo[4,3-c]pyridine-3,6(2H,5H)-dione] as the molecule, how does the Ki [1] read?
Answer: Its Ki is 985 nM.

Question: What about the Ki [2] of the same molecule?
Answer: Its Ki is 80 nM.

Question: Which results are given for `COc1ccccc1-n1[nH]c2cc(=O)n(Cc3cccnc3)c(-c3cc(Cl)ccc3F)c2c1=O` [(14), 4-(5-chloro-2-fluorophenyl)-2-(2-methoxyphenyl)-5-(pyridin-3-ylmethyl)-1H-pyrazolo[4,3-c]pyridine-3,6(2H,5H)-dione]?
Answer: Ki [1]: 695 nM; Ki [2]: 81 nM

Question: For `Cc1c2c(=O)n(-c3ccccc3Cl)[nH]c2cc(=O)n1Cc1cccnc1` [(15), 2-(2-chlorophenyl)-4-methyl-5-(pyridin-3-ylmethyl)-1H-pyrazolo[4,3-c]pyridine-3,6(2H,5H)-dione], which Ki [1] is on record?
Answer: The Ki was 907 nM.

Question: And the Ki [2]?
Answer: The Ki was 83 nM.

Question: Which results are given for `O=c1c2c(-c3ccc(Cl)cc3)n(Cc3cnccn3)c(=O)cc2[nH]n1-c1ccccc1Cl` [(16), 2-(2-chlorophenyl)-4-(4-chlorophenyl)-5-(pyrazin-2-ylmethyl)-1H-pyrazolo[4,3-c]pyridine-3,6(2H,5H)-dione]?
Answer: Ki [1]: 720 nM; Ki [2]: 85 nM

Question: What does the source list for `O=c1c2c(-c3ccccc3F)n(Cc3cccnc3)c(=O)cc2[nH]n1-c1ccccc1Cl` [(17), 2-(2-chlorophenyl)-4-(2-fluorophenyl)-5-(pyridin-3-ylmethyl)-1H-pyrazolo[4,3-c]pyridine-3,6(2H,5H)-dione]?
Answer: Ki [1]: 602 nM; Ki [2]: 88 nM
